Results from patent US9670261B2 (Sanofi, priority 2012, dated 2017).
*1 amine or outer side, *2 acyl side, *3 side chain or, on linkers, in order; H or OH if unused. Where a SMILES comes first, the peptide text is derived from it. Side-chain parts run from the residue outwards. [ ]: non-standard residue; d: D form. The star is where a group is joined. γGlu = O=C(O)[C@H](CCC(=O)[*:2])N[*:1]; Stearoyl = CCCCCCCCCCCCCCCCCC(=O)*; Palmitoyl = CCCCCCCCCCCCCCCC(=O)*; Aib = CC(C)(N)C(=O)O

Columns and labels:
[1] = system: female diet-induced obese (DIO) C57BL/6NCrl mice; test: Body weight in DIO mice, 14 weeks of prefeeding with high-fat diet (method 2); assay type: in vivo
Procedure: Female C57BL/6NCrl mice were housed in groups in a specific pathogen-free barrier facility on a 12 h light/dark cycle with free access to water and high-fat diet. After 14 weeks on high-fat diet, mice were stratified to treatment groups (n=8), so that each group had similar mean body weight.
An aged-matched group with ad libitum access to standard chow and water was included as standard control group.
Before the experiment, mice were subcutaneously (s.c.) injected with vehicle solution and weighed for 3 days to acclimate them to the procedures.
Body weight was recorded daily.
Statistical analyses were performed with Everstat 6.0 by repeated measures two-way ANOVA and Dunnett's post-hoc analyses (glucose profile) and 1-way-ANOVA, followed by Dunnett's post-hoc test (body weight, body fat). Differences versus vehicle-treated DIO control mice were considered statistically significant at the p<0.05 level.
Female obese C57BL/6NCrl mice were treated for 3 weeks once daily subcutaneously in the late afternoon, prior the end of the light phase (12 h lights on) with 10 μg/kg SEQ ID NO: 9 and SEQ ID NO: 21 or vehicle. Body weight was recorded daily.

[2] = system: female diabetic dbdb-mice; test: Glucose, HbA1c and oral glucose tolerance in diabetic dbdb-mice, chronic treatment (method 4); assay type: in vivo
Procedure: 8 week old, female diabetic dbdb-mice of mean non-fasted glucose value of 14.5 mmol/l and a body weight of 37-40 g were used. Mice were individually marked and were adapted to housing conditions for at least one week.
7 days prior to study start, baseline values for non-fasted glucose and HbA1c were determined, 5 days prior to study start, mice were assigned to groups and cages (5 mice per cage, 10 per group) according to their HbA1c values to ensure even distribution of lower and higher values between groups (stratification).
Mice were treated for 4 weeks, by once daily subcutaneous administration 3 hours prior to the dark phase (6 pm to 6 am). Blood samples from a tail tip incision were obtained for HbA1c on study day 21 and oral glucose tolerance was assessed in the 4th week. Oral glucose tolerance test was done in the morning without prior extra compound administration to majorly assess the effect of chronic treatment and less of acute compound administration. Mice were fasted for 4 hours prior to oral glucose administration (2 g/kg, t=0 min). Blood samples were drawn prior to glucose administration and at 15, 30, 60, 90, 120, and 180 min thereafter. Feed was returned after the last blood sampling. Results are represented as change from baseline, glucose in mmol/l and HbA1c in %.
Statistical analyses are performed with Everstat Version 6.0 based on SAS by 1-way-ANOVA, followed by Dunnett's post-hoc test against vehicle-control. Differences are considered statistically significant at the p<0.05 level.
Female dbdb-mice, received 3 and 10 μg/kg of SEQ ID NO: 16 and 10 μg/kg of SEQ ID NO: 21 or phosphate buffered saline (vehicle control) once daily, subcutaneously over four weeks.

[3] = system: non-fasted female diabetic dbdb-mice; test: Glucose lowering in non-fasted female diabetic dbdb-mice; assay type: in vivo; conditions: 3 μg/kg s.c., at 240 min; baseline 20-22 mmol/l
Text: Female diabetic dbdb-mice of mean non-fasted glucose value of 20-22 mmol/l and a body weight of 42 g+/−0.6 g (SEM) were used. Mice were individually marked and were adapted to housing conditions for at least one week.
3-5 days prior to study start mice were assigned to groups and cages (4 mice per cage, 8 per group) according to their non-fasted glucose values to ensure even distribution of lower and higher values between groups (stratification). On the study day, mice were weighed and dosed (t=0). Immediately prior to compound administration feed was removed while water remained available, and a first blood sample at a tail incision was drawn (baseline). Further blood samples were drawn at the tail incision at 30, 60, 90, 120, 240, 360, and 480 min.
Statistical analyses are performed with Everstat Version 6.0 based on SAS by 2-way-ANOVA on repeated measures, followed by Dunnett's post-hoc test against vehicle-control. Differences are considered statistically significant at the p<0.05 level.
Female dbdb-mice, received 3 μg/kg of SEQ ID NO: 14, SEQ ID NO: 21 or phosphate buffered saline (vehicle control) subcutaneously, at time 0 min.

[4] = Pharmacokinetic testing in Göttinger minipigs, s.c.; assay type: in vivo; conditions: female, minipig, plasma, sc, Mini pigs, 0.1 mg/kg s.c.
Procedure: Female Göttinger minipigs were dosed 0.1 mg/kg subcutaneously (s.c.). Blood samples were collected after 0.25, 0.5, 1, 2, 4, 8, 24, 32, 48, 56 and 72 hours post application. Plasma samples were analyzed after protein precipitation via liquid chromatography mass spectrometry (LC/MS). PK parameters and half-life were calculated using WinonLin Version 5.2.1 (non-compartment model).

[5] = Pharmacokinetic testing in mice, s.c.; conditions: mouse, plasma, sc, 1 mg/kg
Procedure: Mice were dosed 1 mg/kg subcutaneously (s.c.). The mice were sacrified and blood samples were collected after 0.25, 0.5, 1, 2, 4, 8, 16 and 24 hours post application. Plasma samples were analyzed after protein precipitation via liquid chromatography mass spectrometry (LC/MS). PK parameters and half-life were calculated using WinonLin Version 5.2.1 (non-compartment model).

[6] = biological target: T1, human GIP receptor (Homo sapiens, UniProt P48546); test: cAMP response (HTRF) of HEK-293 cells stably expressing human GIP receptor; assay type: cell-based; conditions: Table 7; cAMP formation; read-out: EC50 hGIP R
T1 construct: expressed in transfected cells
T1 sequence (P48546 22-466): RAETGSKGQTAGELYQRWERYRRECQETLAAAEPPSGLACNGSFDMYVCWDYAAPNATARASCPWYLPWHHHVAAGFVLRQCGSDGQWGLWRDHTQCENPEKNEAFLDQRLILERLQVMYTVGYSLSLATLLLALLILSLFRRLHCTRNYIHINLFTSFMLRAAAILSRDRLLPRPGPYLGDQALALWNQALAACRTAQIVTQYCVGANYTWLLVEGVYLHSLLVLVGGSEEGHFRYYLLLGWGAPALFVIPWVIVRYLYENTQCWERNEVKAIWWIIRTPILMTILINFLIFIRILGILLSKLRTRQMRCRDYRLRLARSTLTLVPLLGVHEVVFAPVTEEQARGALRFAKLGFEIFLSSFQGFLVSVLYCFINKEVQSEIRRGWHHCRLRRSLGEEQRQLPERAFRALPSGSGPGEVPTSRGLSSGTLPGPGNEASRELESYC
Procedure: cAMP content of cells was determined using a kit from Cisbio Corp. (cat. no. 62AM4PEC) based on HTRF (Homogenous Time Resolved Fluorescence). For preparation, cells were split into T175 culture flasks and grown overnight to near confluency in medium (DMEM/10% FBS). Medium was then removed and cells washed with PBS lacking calcium and magnesium, followed by proteinase treatment with accutase (Sigma-Aldrich cat. no. A6964). Detached cells were washed and resuspended in assay buffer (1×HBSS; 20 mM HEPES, 0.1% BSA, 2 mM IBMX) and cellular density determined. They were then diluted to 400000 cells/ml and 25 μl-aliquots dispensed into the wells of 96-well plates. For measurement, 25 μl of test compound in assay buffer was added to the wells, followed by incubation for 30 minutes at room temperature.

[7] = biological target: T2, human glucagon receptor (Homo sapiens, UniProt P47871); test: cAMP response (HTRF) of HEK-293 cells stably expressing human glucagon receptor; assay type: cell-based; conditions: Table 7; cAMP formation; read-out: EC50 hGLUC R
T2 construct: expressed in transfected cells

[8] = biological target: T3, human GLP-1 receptor (Homo sapiens, UniProt P43220); test: cAMP response (HTRF) of HEK-293 cells stably expressing human GLP-1 receptor; assay type: cell-based; conditions: Table 7; cAMP formation; read-out: EC50 hGLP-1 R
T3 construct: expressed in transfected cells
Method in brief: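 HEK-293 cells stably expressing the receptor were resuspended at 400000 cells/ml in HBSS/20 mM HEPES/0.1% BSA buffer with 2 mM IBMX. Cells were stimulated with compound for 30 min at room temperature. Intracellular cAMP was measured by HTRF.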

T2 sequence (P47871 26-477): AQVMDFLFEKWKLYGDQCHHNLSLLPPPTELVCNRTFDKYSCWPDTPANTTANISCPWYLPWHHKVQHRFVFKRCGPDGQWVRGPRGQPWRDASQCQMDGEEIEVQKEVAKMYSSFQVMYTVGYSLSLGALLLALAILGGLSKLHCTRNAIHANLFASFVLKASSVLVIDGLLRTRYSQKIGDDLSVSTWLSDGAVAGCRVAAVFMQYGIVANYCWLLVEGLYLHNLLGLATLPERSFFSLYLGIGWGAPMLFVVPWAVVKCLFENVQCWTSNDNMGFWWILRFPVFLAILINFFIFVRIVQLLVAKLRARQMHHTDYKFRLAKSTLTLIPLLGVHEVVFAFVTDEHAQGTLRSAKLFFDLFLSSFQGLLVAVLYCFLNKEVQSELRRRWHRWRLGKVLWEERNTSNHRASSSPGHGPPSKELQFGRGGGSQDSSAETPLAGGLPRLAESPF
T3 sequence (P43220 24-463): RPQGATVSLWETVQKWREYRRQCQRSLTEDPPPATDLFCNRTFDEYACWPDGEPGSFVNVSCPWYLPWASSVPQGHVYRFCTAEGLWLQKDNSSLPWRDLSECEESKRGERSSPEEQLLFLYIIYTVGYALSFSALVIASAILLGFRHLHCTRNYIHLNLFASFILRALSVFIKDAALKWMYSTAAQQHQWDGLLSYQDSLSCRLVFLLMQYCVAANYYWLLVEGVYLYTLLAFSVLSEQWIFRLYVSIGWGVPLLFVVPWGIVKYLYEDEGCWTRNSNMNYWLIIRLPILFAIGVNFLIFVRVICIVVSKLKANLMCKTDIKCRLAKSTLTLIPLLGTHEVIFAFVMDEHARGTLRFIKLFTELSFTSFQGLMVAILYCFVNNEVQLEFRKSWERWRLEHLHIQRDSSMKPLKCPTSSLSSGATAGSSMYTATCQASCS

## CCCCCCCCCCCCCCCCCC(=O)N[C@@H](CCC(=O)NCCCC[C@H](NC(=O)[C@H](CCC(N)=O)NC(=O)[C@@H](NC(=O)[C@H](CO)NC(=O)[C@H](CC(C)C)NC(=O)[C@H](CC(=O)O)NC(=O)[C@H](CO)NC(=O)[C@@H](NC(=O)[C@H](Cc1ccccc1)NC(=O)[C@@H](NC(=O)CNC(=O)[C@H](CCC(=O)O)NC(=O)C(C)(C)NC(=O)[C@@H](N)Cc1ccc(O)cc1)[C@@H](C)O)[C@@H](C)O)[C@@H](C)CC)C(=O)N[C@@H](CCC(=O)O)C(=O)N[C@@H](CO)C(=O)N[C@@H](CCCNC(=N)N)C(=O)N[C@@H](C)C(=O)N[C@@H](C)C(=O)N[C@@H](CCC(N)=O)C(=O)N[C@@H](CCC(=O)O)C(=O)N[C@@H](Cc1ccccc1)C(=O)N[C@H](C(=O)N[C@@H](CCC(=O)O)C(=O)N[C@@H](Cc1c[nH]c2ccccc12)C(=O)N[C@@H](CC(C)C)C(=O)N[C@@H](CCCCN)C(=O)N[C@@H](C)C(=O)NCC(=O)NCC(=O)N1CCC[C@H]1C(=O)N[C@@H](CO)C(=O)N[C@@H](CO)C(=O)NCC(=O)N[C@@H](C)C(=O)N1CCC[C@H]1C(=O)N1CCC[C@H]1C(=O)N1CCC[C@H]1C(=O)N[C@@H](CO)C(N)=O)[C@@H](C)CC)C(=O)O [SEQ ID NO: 21, Y-Aib-E-G-T-F-T-S-D-L-S-I-Q-K(γE-x70)-ESRAAQEFIEWLKAGGPSSGAPPPS-NH2] (H-Y[Aib]EGTFTSDLSIQK([γGlu-Stearoyl])ESRAAQEFIEWLKAGGPSSGAPPPS-NH2)
[1]; 10 μg/kg s.c. once daily, 3 weeks
  decrease of body weight, relative change from baseline: ≤ 18.0%
[1]; 10 μg/kg, 3-week treatment, mean ± SEM
  Overall weight change: -7.3 ± 0.7 g
[2]; once daily s.c., oral glucose 2 g/kg in the 4th week
  oral glucose tolerance: improved oral glucose tolerance
[2]; oral glucose tolerance test, p<0.05
  reduction of AUC under the glucose curve compared to vehicle control: reached statistical significance
[3]
  maximal effect, glucose reduction: 10 to 12 mmol/L
[4]
  Cmax: 479 ng/mL
  half-life: 19.1 h
[5]
  Cmax: 5050 ng/mL
  half-life: 4 h
[6]
  EC50: 0.0064 nM

## CCCCCCCCCCCCCCCC(=O)N[C@@H](CCC(=O)NCCCC[C@H](NC(=O)[C@H](CCC(N)=O)NC(=O)[C@@H](NC(=O)[C@H](CO)NC(=O)[C@H](CC(C)C)NC(=O)[C@H](CC(=O)O)NC(=O)[C@H](CO)NC(=O)[C@@H](NC(=O)[C@H](Cc1ccccc1)NC(=O)[C@@H](NC(=O)CNC(=O)[C@H](CCC(=O)O)NC(=O)C(C)(C)NC(=O)[C@@H](N)Cc1ccc(O)cc1)[C@@H](C)O)[C@@H](C)O)[C@@H](C)CC)C(=O)N[C@@H](CC(=O)O)C(=O)N[C@@H](CO)C(=O)N[C@@H](CCCNC(=N)N)C(=O)N[C@@H](C)C(=O)N[C@@H](C)C(=O)N[C@@H](CCC(N)=O)C(=O)N[C@@H](CC(=O)O)C(=O)N[C@@H](Cc1ccccc1)C(=O)N[C@H](C(=O)N[C@@H](CCC(=O)O)C(=O)N[C@@H](Cc1c[nH]c2ccccc12)C(=O)N[C@@H](CC(C)C)C(=O)N[C@@H](CCCCN)C(=O)N[C@@H](C)C(=O)NCC(=O)NCC(=O)N1CCC[C@H]1C(=O)N[C@@H](CO)C(=O)N[C@@H](CO)C(=O)NCC(=O)N[C@@H](C)C(=O)N1CCC[C@H]1C(=O)N1CCC[C@H]1C(=O)N1CCC[C@H]1C(=O)N[C@@H](CO)C(N)=O)[C@@H](C)CC)C(=O)O [SEQ ID NO: 22, Y-Aib-E-G-T-F-T-S-D-L-S-I-Q-K(γE-x53)-DSRAAQDFIEWLKAGGPSSGAPPPS-NH2] (H-Y[Aib]EGTFTSDLSIQK([γGlu-Palmitoyl])DSRAAQDFIEWLKAGGPSSGAPPPS-NH2)
[7]
  EC50: 11.6 nM

## CCCCCCCCCCCCCCCC(=O)N[C@@H](CCC(=O)NCCCC[C@H](NC(=O)[C@H](CCC(N)=O)NC(=O)[C@@H](NC(=O)[C@H](CO)NC(=O)[C@H](CC(C)C)NC(=O)[C@H](CC(=O)O)NC(=O)[C@H](CO)NC(=O)[C@@H](NC(=O)[C@H](Cc1ccccc1)NC(=O)[C@@H](NC(=O)CNC(=O)[C@H](CCC(=O)O)NC(=O)C(C)(C)NC(=O)[C@@H](N)Cc1ccc(O)cc1)[C@@H](C)O)[C@@H](C)O)[C@@H](C)CC)C(=O)N[C@@H](CCC(=O)O)C(=O)N[C@@H](CCCCN)C(=O)N[C@@H](CCCNC(=N)N)C(=O)N[C@@H](C)C(=O)N[C@@H](C)C(=O)N[C@@H](CCC(N)=O)C(=O)N[C@@H](CCC(=O)O)C(=O)N[C@@H](Cc1ccccc1)C(=O)N[C@H](C(=O)N[C@@H](CCC(=O)O)C(=O)N[C@@H](Cc1c[nH]c2ccccc12)C(=O)N[C@@H](CC(C)C)C(=O)N[C@@H](CCCCN)C(=O)N[C@@H](C)C(=O)NCC(=O)NCC(=O)N1CCC[C@H]1C(=O)N[C@@H](CO)C(=O)N[C@@H](CO)C(=O)NCC(=O)N[C@@H](C)C(=O)N1CCC[C@H]1C(=O)N1CCC[C@H]1C(=O)N1CCC[C@H]1C(=O)N[C@@H](CO)C(N)=O)[C@@H](C)CC)C(=O)O [SEQ ID NO: 34, Y-Aib-E-G-T-F-T-S-D-L-S-I-Q-K(γE-x53)-EKRAAQEFIEWLKAGGPSSGAPPPS-NH2] (H-Y[Aib]EGTFTSDLSIQK([γGlu-Palmitoyl])EKRAAQEFIEWLKAGGPSSGAPPPS-NH2)
[8]
  EC50: 0.0046 nM
[7]
  EC50: 11.6 nM
[5]
  Cmax: 5130 ng/mL
  half-life: 2.8 h
